Data as given in ChEMBL document CHEMBL5053551, “Structure-Based Design of Dual Partial Peroxisome Proliferator-Activated Receptor γ Agonists/Soluble Epoxide Hydrolase Inhibitors” (J Med Chem, 2021).
Converted amounts (≈) assume the structure as drawn. The source made the active and inactive calls. The calls are words filed in the database; no cut-off is given here.

Key:
[1] = tested on: HepG2; experiment: Cytotoxicity agianst human HepG2 cells assessed as reduction in cell viability at 30 uM after 48 hrs by WST-1 assay; format: cell-based; details: hepg2, 48 h
[2] = target: T1, Peroxisome proliferator-activated receptor gamma (Homo sapiens, UniProt P37231); experiment: Partial agonist activity at sGSF-PPARgamma (unknown origin) assessed as CBP-1 recruitment by HT-FRET assay
T1 sequence (P37231 whole entry): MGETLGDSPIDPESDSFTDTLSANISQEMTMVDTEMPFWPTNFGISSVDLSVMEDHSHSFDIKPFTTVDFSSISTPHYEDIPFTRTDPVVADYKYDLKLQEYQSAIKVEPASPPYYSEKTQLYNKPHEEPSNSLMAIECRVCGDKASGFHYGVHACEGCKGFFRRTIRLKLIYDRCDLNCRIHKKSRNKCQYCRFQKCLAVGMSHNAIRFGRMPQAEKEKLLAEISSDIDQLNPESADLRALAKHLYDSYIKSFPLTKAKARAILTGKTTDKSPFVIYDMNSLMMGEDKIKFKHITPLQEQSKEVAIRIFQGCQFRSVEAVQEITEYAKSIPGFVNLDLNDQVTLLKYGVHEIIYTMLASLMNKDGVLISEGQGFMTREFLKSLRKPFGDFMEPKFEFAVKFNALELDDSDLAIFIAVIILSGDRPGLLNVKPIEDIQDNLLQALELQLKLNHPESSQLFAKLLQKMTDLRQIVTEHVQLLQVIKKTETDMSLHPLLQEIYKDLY

[3] = Solubility of compound in DPBS buffer; format: physicochemical
[4] = tested on: HepG2; experiment: Induction of cell proliferation in human HepG2 cells; format: functional, cell-based; details: dose 2.5-100 µM
[5] = target: T2, Peroxisome proliferator-activated receptor alpha (Homo sapiens) (UniProt Q07869); experiment: Partial agonist activity at GAL4-tagged human PPARalpha LBD expressed in HEK293T cells at 3 uM incubated for 12 to 14 hrs by dual-Glo luciferase assay; format: cell-based; details: time 12-14 hrs
T2 sequence (whole entry): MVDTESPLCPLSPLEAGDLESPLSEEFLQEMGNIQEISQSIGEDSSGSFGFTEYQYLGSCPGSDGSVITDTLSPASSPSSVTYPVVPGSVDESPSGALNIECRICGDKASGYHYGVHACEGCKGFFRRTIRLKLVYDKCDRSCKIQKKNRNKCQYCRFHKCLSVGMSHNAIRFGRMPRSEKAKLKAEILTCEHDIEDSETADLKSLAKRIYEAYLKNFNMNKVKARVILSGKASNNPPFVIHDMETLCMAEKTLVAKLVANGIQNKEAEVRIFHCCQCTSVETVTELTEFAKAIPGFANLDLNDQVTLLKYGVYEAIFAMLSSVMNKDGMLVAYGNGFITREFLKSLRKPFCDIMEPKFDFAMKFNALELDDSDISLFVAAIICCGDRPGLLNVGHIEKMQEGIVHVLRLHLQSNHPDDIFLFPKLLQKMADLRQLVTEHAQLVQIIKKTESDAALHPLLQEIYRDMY

[6] = target: T3, Bifunctional epoxide hydrolase 2 (Mus musculus, UniProt P34914); experiment: Inhibition of N-terminal His-tagged mouse sEH (2 to 554 residues) expressed in Escherichia coli Rosetta2 (DE3) assessed as reduction in 6-methoxy-2-naphthaldehyde formation using PHOME as substrate preincubated for 30 to 45 mins followed by substrate addition and measured after 30 to 45 mins by fluorescence assay
T3 sequence (P34914 whole entry): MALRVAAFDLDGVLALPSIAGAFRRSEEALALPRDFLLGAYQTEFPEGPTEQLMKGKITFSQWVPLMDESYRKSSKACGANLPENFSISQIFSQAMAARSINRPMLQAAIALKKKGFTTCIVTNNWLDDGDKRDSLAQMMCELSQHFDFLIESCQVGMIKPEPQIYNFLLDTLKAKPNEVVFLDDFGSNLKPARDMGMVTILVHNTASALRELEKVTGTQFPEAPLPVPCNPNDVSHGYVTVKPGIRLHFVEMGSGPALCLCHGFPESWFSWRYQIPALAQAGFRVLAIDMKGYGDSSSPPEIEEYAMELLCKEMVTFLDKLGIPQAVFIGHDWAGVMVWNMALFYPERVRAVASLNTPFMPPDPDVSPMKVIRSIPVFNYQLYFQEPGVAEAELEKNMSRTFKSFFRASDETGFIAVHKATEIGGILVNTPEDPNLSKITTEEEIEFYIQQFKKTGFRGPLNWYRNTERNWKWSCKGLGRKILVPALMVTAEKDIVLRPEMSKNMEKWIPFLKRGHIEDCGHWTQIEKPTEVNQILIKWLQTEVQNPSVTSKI

[7] = tested on: HepG2; experiment: Cytotoxicity agianst human HepG2 cells assessed as reduction in cell viability at 10 to 30 uM after 48 hrs by WST-1 assay; format: cell-based; details: hepg2, 48 h, dose 10-30 µM
[8] = Drug metabolism in rat liver microsomes assessed as metabolite formation after 60 mins by UPLC-MS analysis; format: ADME, Microsome; details: 1 h
[9] = target: T1, Peroxisome proliferator-activated receptor gamma; experiment: Partial agonist activity at recombinant sGSF-PPARgamma (unknown origin) assessed as reduction in rosiglitazone induced CBP-1 recruitment incubated for 1 hr by HTRF competitive assay
[10] = target: T4, Bifunctional epoxide hydrolase 2 (Homo sapiens, UniProt P34913); experiment: Inhibition of recombinant human full length sEH assessed as reduction in 6-methoxy-2-naphthaldehyde formation using PHOME as substrate preincubated for 30 to 45 mins followed by substrate addition and measured after 30 to 45 mins by fluorescence assay
T4 sequence (P34913 whole entry): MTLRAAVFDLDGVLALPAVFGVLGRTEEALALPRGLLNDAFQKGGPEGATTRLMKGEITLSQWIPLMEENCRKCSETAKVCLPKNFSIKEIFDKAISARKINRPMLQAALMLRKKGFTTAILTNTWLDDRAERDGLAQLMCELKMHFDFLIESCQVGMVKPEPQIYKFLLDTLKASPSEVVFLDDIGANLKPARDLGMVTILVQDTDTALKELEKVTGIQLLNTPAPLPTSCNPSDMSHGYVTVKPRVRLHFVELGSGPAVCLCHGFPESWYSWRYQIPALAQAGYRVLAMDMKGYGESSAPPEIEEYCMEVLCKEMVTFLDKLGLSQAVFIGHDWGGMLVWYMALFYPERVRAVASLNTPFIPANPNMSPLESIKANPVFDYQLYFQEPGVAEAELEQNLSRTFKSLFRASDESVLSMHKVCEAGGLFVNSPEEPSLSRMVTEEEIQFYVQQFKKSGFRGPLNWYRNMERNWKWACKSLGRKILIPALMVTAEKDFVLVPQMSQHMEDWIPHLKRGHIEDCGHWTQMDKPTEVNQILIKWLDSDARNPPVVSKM

| EC50 [2] [nM] | solubility [3] [µM] | Activity [5] | IC50 [6] [nM] | Drug metabolism [8] | IC50 [9] [nM] | IC50 [10] [nM] | SMILES | Activity [1] | Activity [4] | Activity [7] |
| --- | --- | --- | --- | --- | --- | --- | --- | --- | --- | --- |
| 180 | 3 (≈ 1.64 µg/mL) | inactive | 202 |  |  |  | O=C(NCc1ccc(NS(=O)(=O)C2CC2)cc1C(F)(F)F)c1ccc2c(ccn2Cc2cccc(F)c2)c1 | Non-Toxic | Dose-dependent effect |  |
| 330 | 3 (≈ 1.56 µg/mL) | inactive | 46 | Metabolite_Detected | 1620 | 5 | CS(=O)(=O)Nc1ccc(CNC(=O)c2ccc3c(ccn3Cc3cccc(F)c3)c2)c(C(F)(F)F)c1 |  |  | Toxic |
